Measurements: ChEMBL document CHEMBL1201862, “PubChem BioAssay data set” (2004)
The source made the active and inactive calls.

Key:
[1] = target: T1, Ubiquitin-conjugating enzyme E2 N (Homo sapiens, UniProt P61088); type: functional
T1 sequence (P61088 whole entry): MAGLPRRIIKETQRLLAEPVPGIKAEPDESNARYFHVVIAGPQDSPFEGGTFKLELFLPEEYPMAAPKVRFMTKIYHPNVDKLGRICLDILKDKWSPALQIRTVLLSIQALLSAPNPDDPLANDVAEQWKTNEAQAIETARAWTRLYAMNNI

[2] = non-specific 3'UTR reporter inhibition in Clone20-Shn3RL – cell-based, Renilla luciferase, cherry-picked, counter-screen for Shn3 inhibitor project, dose response (AID 624133); type: functional
[3] = target: Neurotensin receptor type 1 (Homo sapiens, UniProt P30989); type: functional;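 also: Image-based confirmatory dose-response assay measuring agonist activity at NTR1; NTR1-expressing U2OS osteosarcoma cells imaged for beta-arrestin GFP spot formation; agonist potency where compounds increase beta-arrestin recruitment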
[4] = reduction of Shn3 3'UTR-driven luciferase in osteoblasts – cell-based, Clone20 osteoblasts, firefly luciferase, cherry-picked, dose response (AID 624132); type: functional;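 also: firefly luciferase luminescence from reporter carrying the Shn3 3'UTR in osteoblasts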
[5] = target: T1, Ubiquitin-conjugating enzyme E2 N; type: functional; remark: listed apart in the source
[6] = target: Heat shock protein HSP 90-alpha (Homo sapiens, UniProt P07900); type: functional, organism-based
Bcl-2-related protein A1 = target: T2, Bcl-2-related protein A1 (Mus musculus, UniProt Q07440); type: functional;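 also: confirmatory dose–response counterscreen on Bfl-1, used to check hits from a UBC13 polyubiquitin inhibitor campaign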
T2 sequence (Q07440 whole entry): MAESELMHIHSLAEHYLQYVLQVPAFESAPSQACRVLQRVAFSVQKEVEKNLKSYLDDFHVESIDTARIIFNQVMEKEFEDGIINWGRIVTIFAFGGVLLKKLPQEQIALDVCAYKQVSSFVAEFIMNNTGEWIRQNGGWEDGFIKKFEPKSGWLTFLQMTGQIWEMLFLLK

[7] = target: T3, Microphthalmia-associated transcription factor (Homo sapiens, UniProt O75030); assay: reducers of TRPM1 reporter luminescence, concentration series – cell-based, SK-MEL-5, cherry-picked, set 3, MITF inhibitor project, dose response (AID 493073); type: functional;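 also: SK-MEL-5 melanoma cells with luciferase driven by the MITF target TRPM1 promoter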
T3 sequence (O75030 whole entry): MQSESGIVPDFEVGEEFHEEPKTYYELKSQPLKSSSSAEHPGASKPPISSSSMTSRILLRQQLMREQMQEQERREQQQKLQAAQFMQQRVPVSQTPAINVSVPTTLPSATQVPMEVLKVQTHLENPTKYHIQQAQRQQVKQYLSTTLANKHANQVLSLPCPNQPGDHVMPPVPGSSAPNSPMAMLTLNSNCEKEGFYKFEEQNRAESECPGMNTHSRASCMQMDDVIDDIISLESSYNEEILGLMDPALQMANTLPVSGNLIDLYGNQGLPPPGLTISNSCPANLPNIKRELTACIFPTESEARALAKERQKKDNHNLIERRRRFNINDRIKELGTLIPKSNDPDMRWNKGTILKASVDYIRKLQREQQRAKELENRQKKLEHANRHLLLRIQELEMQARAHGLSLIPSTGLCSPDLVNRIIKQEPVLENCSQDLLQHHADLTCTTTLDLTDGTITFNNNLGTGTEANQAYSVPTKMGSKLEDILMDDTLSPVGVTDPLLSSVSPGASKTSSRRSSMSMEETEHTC

Caspase-3 = target: T4, Caspase-3 (Homo sapiens, UniProt P42574); assay: human caspase-3 protease activity blockade – biochemical, fluorescence, cherry-picked samples, selectivity assay for caspase-6 allosteric inhibitor project, dose response (AID 743291)
T4 sequence (P42574 whole entry): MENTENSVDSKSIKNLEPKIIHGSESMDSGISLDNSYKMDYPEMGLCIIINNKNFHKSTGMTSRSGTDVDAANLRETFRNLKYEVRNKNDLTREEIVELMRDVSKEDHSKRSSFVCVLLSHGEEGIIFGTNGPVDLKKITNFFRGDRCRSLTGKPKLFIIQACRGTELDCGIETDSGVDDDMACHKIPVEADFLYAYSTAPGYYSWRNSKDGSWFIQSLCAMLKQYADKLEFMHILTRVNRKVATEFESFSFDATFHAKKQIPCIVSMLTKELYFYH

[8] = target: Tyrosyl-DNA phosphodiesterase 2 (Homo sapiens, UniProt O95551); assay: potency against TDP2 phosphodiesterase activity – biochemical, epi absorbance, IC50, dose response (AID 743297)
Caspase-8 = Caspase-8 (Homo sapiens, UniProt Q14790); assay: inhibitors of purified CASP8 protease – biochemical, Z-IETD-R110 fluorescence, cherry-picked samples, selectivity assay for caspase-6 inhibitor project, dose response (AID 743294)
Hexokinase HKDC1 = Hexokinase HKDC1 (Homo sapiens, UniProt Q2TB90); assay: inhibition of HKDC1 glucose phosphorylation – biochemical, W721R variant, dose response (AID 504729); type: functional
SUMO-activating enzyme = SUMO-activating enzyme (Homo sapiens, UniProt Q9UBT2); assay: blockers of UBC9-mediated SUMO conjugation – biochemical, AlphaScreen, SUMOylation inhibitor project, confirmation (AID 2018); type: functional
Sequence of SUMO-activating enzyme (Q9UBE0 whole entry): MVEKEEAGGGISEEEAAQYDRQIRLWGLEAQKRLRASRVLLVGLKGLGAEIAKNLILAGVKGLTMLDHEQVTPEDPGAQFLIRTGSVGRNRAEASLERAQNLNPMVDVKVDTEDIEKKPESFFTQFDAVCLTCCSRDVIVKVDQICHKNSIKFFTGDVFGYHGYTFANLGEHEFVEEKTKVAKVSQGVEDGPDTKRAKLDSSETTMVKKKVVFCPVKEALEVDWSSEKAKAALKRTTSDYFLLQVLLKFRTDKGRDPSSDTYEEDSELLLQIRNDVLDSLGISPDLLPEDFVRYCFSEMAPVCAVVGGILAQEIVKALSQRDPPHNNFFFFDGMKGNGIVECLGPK
Sequence of SUMO-activating enzyme (Q9UBT2 whole entry): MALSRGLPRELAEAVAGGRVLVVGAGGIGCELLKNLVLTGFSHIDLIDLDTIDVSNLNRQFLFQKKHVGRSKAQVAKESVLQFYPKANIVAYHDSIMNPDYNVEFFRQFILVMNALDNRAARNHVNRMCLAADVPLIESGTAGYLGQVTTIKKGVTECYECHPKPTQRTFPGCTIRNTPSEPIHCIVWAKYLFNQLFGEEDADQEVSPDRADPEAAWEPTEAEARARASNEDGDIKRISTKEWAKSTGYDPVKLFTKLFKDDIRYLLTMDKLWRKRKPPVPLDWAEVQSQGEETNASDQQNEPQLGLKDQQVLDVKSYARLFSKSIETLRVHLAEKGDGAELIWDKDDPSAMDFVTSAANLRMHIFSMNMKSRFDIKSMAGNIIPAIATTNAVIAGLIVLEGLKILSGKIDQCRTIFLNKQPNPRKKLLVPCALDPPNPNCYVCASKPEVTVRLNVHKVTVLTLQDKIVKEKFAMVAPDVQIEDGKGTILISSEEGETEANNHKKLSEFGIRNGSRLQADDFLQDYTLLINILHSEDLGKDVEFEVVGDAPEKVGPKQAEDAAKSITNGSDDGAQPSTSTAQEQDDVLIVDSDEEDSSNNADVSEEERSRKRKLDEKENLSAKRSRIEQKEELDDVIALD

Sequence of Neurotensin receptor type 1 (P30989 whole entry): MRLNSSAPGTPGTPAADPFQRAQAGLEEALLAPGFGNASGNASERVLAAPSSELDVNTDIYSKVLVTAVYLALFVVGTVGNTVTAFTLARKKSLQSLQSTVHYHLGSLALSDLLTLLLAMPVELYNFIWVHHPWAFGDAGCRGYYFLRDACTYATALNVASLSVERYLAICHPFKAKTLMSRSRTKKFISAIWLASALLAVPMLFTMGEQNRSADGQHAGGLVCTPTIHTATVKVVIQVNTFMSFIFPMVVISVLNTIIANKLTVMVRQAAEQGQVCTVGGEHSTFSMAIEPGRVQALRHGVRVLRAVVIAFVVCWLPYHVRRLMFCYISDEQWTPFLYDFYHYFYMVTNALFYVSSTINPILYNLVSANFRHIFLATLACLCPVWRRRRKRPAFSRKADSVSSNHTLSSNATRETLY
Sequence of Caspase-8 (Q14790 217-374 limits assumed): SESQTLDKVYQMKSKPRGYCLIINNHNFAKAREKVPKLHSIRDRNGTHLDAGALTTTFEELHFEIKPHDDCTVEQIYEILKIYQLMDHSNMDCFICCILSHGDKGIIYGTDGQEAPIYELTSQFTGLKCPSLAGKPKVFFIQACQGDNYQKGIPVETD
Sequence of Caspase-8 (Q14790 385-479 limits assumed): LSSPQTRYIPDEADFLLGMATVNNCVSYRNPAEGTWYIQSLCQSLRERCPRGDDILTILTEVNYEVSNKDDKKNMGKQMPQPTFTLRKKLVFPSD
Sequence of Hexokinase HKDC1 (Q2TB90 whole entry): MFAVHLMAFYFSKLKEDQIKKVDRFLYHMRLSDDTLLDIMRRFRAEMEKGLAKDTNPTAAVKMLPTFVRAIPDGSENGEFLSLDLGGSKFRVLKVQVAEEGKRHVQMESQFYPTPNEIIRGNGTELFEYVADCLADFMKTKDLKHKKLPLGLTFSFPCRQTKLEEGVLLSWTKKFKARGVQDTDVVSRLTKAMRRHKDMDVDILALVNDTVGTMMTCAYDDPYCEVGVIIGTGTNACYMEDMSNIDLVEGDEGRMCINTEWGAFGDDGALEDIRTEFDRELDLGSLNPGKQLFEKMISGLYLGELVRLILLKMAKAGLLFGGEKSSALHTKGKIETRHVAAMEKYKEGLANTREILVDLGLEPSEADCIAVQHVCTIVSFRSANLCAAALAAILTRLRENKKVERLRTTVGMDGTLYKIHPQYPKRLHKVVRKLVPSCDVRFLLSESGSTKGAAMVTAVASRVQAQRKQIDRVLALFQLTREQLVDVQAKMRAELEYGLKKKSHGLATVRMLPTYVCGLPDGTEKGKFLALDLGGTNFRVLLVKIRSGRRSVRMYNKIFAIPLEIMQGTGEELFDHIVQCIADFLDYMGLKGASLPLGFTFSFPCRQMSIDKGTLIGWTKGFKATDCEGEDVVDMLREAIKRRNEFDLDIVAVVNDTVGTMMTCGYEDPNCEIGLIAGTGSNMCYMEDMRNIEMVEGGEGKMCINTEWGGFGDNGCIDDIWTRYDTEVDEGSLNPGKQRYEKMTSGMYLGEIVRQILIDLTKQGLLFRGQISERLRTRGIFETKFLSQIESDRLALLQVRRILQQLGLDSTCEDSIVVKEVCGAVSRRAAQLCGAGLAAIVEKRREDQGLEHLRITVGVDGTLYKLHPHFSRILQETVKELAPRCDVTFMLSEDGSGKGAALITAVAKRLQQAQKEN
Sequence of Tyrosyl-DNA phosphodiesterase 2 (O95551 whole entry): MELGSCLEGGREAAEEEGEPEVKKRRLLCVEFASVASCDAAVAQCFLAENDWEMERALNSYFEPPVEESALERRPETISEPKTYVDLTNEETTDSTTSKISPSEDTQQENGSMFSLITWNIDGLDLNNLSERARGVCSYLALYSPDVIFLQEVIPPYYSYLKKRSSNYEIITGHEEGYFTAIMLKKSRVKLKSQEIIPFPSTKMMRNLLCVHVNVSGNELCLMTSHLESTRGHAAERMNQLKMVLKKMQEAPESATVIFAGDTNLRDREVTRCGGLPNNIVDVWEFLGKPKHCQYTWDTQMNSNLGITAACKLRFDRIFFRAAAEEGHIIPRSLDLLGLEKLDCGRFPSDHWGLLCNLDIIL

CCCCCCCCCCOC(=O)Cn1c(COc2ccc(OC)cc2)[n+](C)c2ccccc21
active: IC50 [1] 11 µM | AC50 [2] 3.44 µM | EC50 [3] 15.8 µM | AC50 [4] 2.01 µM | IC50 [5] 12.5 µM | AC50 [6] 38.2 µM | IC50 (Bcl-2-related protein A1) 19.1 µM

COC1=C(c2ccccc2)C(=O)c2ccccc2C1=O
active: AC50 [7] 9.05 µM

COc1cc2c(cc1OC)-c1c(OC)c(OC)cc3c1[C@H](C2)N(C)CC3
active: AC50 (Caspase-3) 6.27 µM | IC50 [8] 6.22 µM | AC50 (Caspase-8) 48.1 µM

O=C1C(Cl)=C(N2CCC(C(=O)O)CC2)C(=O)c2ccccc21
active: IC50 (Hexokinase HKDC1) 8.29 µM | IC50 (SUMO-activating enzyme) 5.75 µM
